Read-outs that look alike come from different tables or passages of the source. *1 amine or outer side, *2 acyl side, *3 side chain or, on linkers, in order; H or OH if unused. Where a SMILES comes first, the peptide text is derived from it. [ ]: non-standard residue; d: D form. The star is where a group is joined. Camptothecin(20R,20-O) = CC[C@]1(O*)C(=O)OCc2c1cc1n(c2=O)Cc2cc3ccccc3nc2-1; X1 = CCCNC(=O)Nc1cccc(S(=O)(=O)Nc2cccc(C(CC(=O)O)N*)c2)c1; NH(1,4-C6H4)NHCS = S=C(Nc1ccc(N[*:1])cc1)[*:2]; CO = O=C([*:1])[*:2]; GABA = NCCCC(=O)O
How the values were obtained:
SW 480 = experiment: Growth inhibition test (MTT), cytotoxic action on tumour cell lines; format: cell-based, human
Summary of the method: (§1)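 Cells seeded at 50,000/ml (B16F10 20,000/ml) in RPMI + 10% FCS, grown 1 day at 37 °C, then compound added in DMSO. Growth read on day 6 by MTT (5 h, 37 °C), isopropanol solubilisation, extinction at 595 nm; IC50 reported per line.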

HT29 = experiment: as above; format: cell-based, human
Summary of the method: as §1

αvβ3 receptor = molecular target: T1, αvβ3 receptor (Homo sapiens, UniProt P05106+P06756); experiment: αvβ3 binding test (echistatin displacement, WGA SPA beads); settings: αvβ3 from human A375 cells
T1 construct: αvβ3 from human A375 cells was purified; endogenous in cells; host or cells: human A375 cells (receptor purified from the cells, analogous to Wong et al. 1996)

MMP-2 = molecular target: T2, MMP-2 (Homo sapiens, UniProt P08253); experiment: Cleavage of conjugates by MMP-2 in buffer (HPLC); format: biochemical; settings: after 6 h incubation with MMP-2; buffer pH 7.5
T2 construct: purchased Calbiochem
T2 sequence (P08253 110-660): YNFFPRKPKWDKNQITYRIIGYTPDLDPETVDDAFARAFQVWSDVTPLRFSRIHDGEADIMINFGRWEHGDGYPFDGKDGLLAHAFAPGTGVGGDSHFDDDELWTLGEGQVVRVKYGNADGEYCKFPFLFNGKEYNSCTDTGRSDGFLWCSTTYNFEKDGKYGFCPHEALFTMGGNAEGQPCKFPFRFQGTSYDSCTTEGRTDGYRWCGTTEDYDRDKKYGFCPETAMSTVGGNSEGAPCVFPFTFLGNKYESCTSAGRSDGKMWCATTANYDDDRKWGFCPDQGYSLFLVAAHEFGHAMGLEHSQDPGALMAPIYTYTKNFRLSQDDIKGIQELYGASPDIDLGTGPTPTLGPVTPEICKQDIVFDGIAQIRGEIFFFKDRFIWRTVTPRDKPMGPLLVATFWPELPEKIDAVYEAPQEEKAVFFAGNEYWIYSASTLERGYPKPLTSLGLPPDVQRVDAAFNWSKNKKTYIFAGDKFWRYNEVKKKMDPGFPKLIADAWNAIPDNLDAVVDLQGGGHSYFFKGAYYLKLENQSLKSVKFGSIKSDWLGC
Procedure: 2.5 μl MMP-2 (Calbiochem) with a specific activity of 60 μU/μl are incubated with 10 nM of the conjugates exemplified in the example series 1-25 in 1 ml of a medium consisting of 50 mM Tris-HCl pH 7.5, 0.2 M NaCl, 10 mM CaCL2*2H2O and 0.05% Brij 35. The enzyme mediated cleavage of the conjugates is detected by HPLC analysis using an RP18 (5 μM) column with 70% HClO4/water (0.4% v/v) as eluent A and acentonitrile as eluent B (UV detection at […]). The efficiency of the cleavage is assessed by comparing the peak areas of the intact conjugate (starting material) and the cleavage product (tripeptide conjugate of camptothecin) after 6 h and 24 h incubation (cf. Table 5).

hemopoietic stem cells = experiment: CSF-induced proliferation of hemopoietic stem cells (colony formation); format: cell-based, mice; settings: murine bone marrow cells, GM-CSF, 7 days
Procedure: Bone marrow cells are flushed out of the femur of mice. 10^5 cells are incubated in McCoy 5A medium (0.3% agar) together with recombinant murine GM-CSF (Genzyme; parent cell colony formation) and the substances (10^−4 to 100 μg/ml) at 37° C. and 7% CO2. 7 days later, the colonies […] and clusters (17-50 cells) are counted.

B16F10 = experiment: Growth inhibition test (MTT), cytotoxic action on tumour cell lines; format: cell-based, mouse
Summary of the method: as §1

T1 sequence (P06756 31-889 limits assumed): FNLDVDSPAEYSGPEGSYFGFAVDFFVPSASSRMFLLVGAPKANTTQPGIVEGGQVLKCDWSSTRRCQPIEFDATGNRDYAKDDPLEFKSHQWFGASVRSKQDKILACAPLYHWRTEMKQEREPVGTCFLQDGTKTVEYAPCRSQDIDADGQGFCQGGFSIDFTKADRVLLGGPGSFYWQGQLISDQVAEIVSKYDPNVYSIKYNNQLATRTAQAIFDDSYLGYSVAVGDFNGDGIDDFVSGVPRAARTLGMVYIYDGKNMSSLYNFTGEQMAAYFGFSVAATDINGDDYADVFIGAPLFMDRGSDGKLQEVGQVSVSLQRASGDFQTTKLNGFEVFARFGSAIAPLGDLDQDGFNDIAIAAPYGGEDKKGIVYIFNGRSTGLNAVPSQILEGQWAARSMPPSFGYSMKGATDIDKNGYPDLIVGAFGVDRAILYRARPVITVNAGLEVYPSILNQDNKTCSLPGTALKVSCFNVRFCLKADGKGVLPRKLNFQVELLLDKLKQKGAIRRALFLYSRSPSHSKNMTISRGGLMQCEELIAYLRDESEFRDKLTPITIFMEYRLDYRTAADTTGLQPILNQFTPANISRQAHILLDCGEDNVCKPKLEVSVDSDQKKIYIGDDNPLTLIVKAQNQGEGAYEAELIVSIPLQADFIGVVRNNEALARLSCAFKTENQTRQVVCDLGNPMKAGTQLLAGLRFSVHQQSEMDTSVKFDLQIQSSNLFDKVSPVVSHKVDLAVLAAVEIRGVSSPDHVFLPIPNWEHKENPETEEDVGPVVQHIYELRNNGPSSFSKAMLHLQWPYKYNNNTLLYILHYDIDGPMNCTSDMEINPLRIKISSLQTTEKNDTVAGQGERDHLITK
T1 sequence (P06756 891-1048 partner limits assumed): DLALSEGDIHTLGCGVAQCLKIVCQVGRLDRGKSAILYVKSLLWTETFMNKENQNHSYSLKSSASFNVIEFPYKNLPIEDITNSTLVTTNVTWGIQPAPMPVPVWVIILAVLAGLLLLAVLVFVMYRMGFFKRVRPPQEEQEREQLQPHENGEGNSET
T1 sequence (P05106 27-788): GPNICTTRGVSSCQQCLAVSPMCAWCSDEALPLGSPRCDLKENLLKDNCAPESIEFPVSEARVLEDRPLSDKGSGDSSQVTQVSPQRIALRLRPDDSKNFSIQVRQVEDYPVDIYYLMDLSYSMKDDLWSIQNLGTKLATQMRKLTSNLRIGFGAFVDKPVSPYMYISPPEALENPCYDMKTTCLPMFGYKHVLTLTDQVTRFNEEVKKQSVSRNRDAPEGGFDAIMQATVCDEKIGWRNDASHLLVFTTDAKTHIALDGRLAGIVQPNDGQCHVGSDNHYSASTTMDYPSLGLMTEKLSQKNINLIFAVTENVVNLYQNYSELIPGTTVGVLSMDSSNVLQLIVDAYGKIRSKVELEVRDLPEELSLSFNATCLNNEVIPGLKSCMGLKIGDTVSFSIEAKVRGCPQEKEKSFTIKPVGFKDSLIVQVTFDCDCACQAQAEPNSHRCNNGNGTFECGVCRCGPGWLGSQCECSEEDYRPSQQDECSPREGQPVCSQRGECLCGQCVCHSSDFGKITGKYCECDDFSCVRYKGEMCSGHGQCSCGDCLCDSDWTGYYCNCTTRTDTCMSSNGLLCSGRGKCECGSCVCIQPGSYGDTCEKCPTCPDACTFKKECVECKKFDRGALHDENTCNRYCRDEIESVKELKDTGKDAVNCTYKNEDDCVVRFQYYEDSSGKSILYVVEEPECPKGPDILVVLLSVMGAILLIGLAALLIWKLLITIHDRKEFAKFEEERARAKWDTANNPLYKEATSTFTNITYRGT

| SMILES | IC50 (SW 480; human, 6 days) [nM] | IC50 (HT29; human, 6 days) [nM] | IC50 (αvβ3 receptor; read-out: IC50 values of the binding to the αvβ3 receptor) [nM] | MMP-2 mediated cleavage Peak area product/educt x100 (MMP-2) | IC50 values of the inhibition of colony formation of hemopoietic stem cells (hemopoietic stem cells) [µg/mL] | IC50 (B16F10; mouse, 6 days) [nM] | IC50 (SW 480; SW480, MTT after day 6, read-out: IC50 values of the cytotoxic action on tumour cell lines, SW480) [nM] | IC50 (HT29; HT29, MTT after day 6, read-out: IC50 values of the cytotoxic action on tumour cell lines, HT29) [nM] | IC50 values of the binding to the αvβ3 receptor (αvβ3 receptor) | IC50 (B16F10; B16F10, MTT after day 6, read-out: IC50 values of the cytotoxic action on tumour cell lines, B16F10) [nM] |
| --- | --- | --- | --- | --- | --- | --- | --- | --- | --- | --- |
| CCCNC(=O)Nc1cccc(S(=O)(=O)Nc2cccc(C(CC(=O)O)NC(=O)Nc3ccc(NC(=S)N4CCC[C@@H]4C(=O)N[C@@H](CC(C)C)C(=O)NCC(=O)N[C@H](CC(C)C)C(=O)N[C@H](Cc4c[nH]cn4)C(=O)N[C@@H](C(=O)O[C@@]4(CC)C(=O)OCc5c4cc4n(c5=O)Cc5cc6ccccc6nc5-4)C(C)C)cc3)c2)c1 (some centres unmarked) [Example 1] | 70 | 50 | 40 | 17 | 0.03 | 250 | – | – | – | – |
| CCCNC(=O)Nc1cccc(S(=O)(=O)Nc2cccc(C(CC(=O)O)NC(=O)Nc3ccc(NC(=S)NCCCC(=O)N4CCC[C@@H]4C(=O)N[C@@H](CC(C)C)C(=O)NCC(=O)N[C@H](CC(C)C)C(=O)N[C@H](Cc4c[nH]cn4)C(=O)N[C@@H](C(=O)O[C@@]4(CC)C(=O)OCc5c4cc4n(c5=O)Cc5cc6ccccc6nc5-4)C(C)C)cc3)c2)c1 (stereo partly drawn) [Example 16] ({X1-CO}-[NH(1,4-C6H4)NHCS][GABA][dP]LG[dL][dH][dV]-{Camptothecin(20R,20-O)}) | – | – | – | – | 0.015 | – | 40 | 25 | nix | 50 |
